“And” between values parts separate entries of the source, which are not always exact repeats. Equal entries are not always repeated.
OCCCO
viscosity
Conditions | 293.15 K | 298.15 K | 303.15 K | 308.15 K | 313.15 K | 318.15 K | 323.15 K
100 kPa | 54.53 mPa·s (2×) and 53.1 mPa·s and 52.75 mPa·s | 42.89 mPa·s (2×) and 41.2 mPa·s | 34.62 mPa·s (2×) and 33.4 mPa·s and 32.51 mPa·s | 27.06 mPa·s | 21.85 mPa·s | 19.93 mPa·s | –
101 kPa | – | 42.1 mPa·s and 42.06 mPa·s | 33.7 mPa·s | – | 22.1 mPa·s and 20.29 mPa·s | 18.8 mPa·s and 16.88 mPa·s | 14.16 mPa·s
101.3 kPa | – | 41.77 mPa·s | 33.35 mPa·s | – | 22.39 mPa·s | 18.61 mPa·s | 15.66 mPa·s

CN1CCC[C@H]1c1cccnc1
viscosity
Conditions | 298.15 K | 303.15 K | 308.15 K | 318.05 K | 323.15 K
100 kPa | – | 3.6 mPa·s | – | 2.5 mPa·s | 2.195 mPa·s
101 kPa | 3.894 mPa·s (2×) and 3.894 mPa·s (2×) and 3.894 mPa·s | – | 3.156 mPa·s and 3.156 mPa·s | – | –
101.33 kPa | 3.894 mPa·s (2×) and 3.891 mPa·s | – | 3.156 mPa·s | – | 2.038 mPa·s

CC(=O)[O-].CC[n+]1ccn(C)c1
viscosity
Conditions | 293.15 K | 303.15 K | 308.15 K | 313.15 K | 318.15 K | 323.15 K
100 kPa | 203 mPa·s | 89.44 mPa·s | – | 53.45 mPa·s and 61.13 mPa·s | – | 34.58 mPa·s
101 kPa | 197 mPa·s | 93.62 mPa·s and 95.11 mPa·s and 102.4 mPa·s | 71.26 mPa·s | 57.72 mPa·s and 55.52 mPa·s and 60.42 mPa·s | 44.15 mPa·s | 35.74 mPa·s and 36.27 mPa·s and 38.97 mPa·s

CCn1cc[n+](C)c1.[Cl][Al-]([Cl])([Cl])[Cl+][Al-]([Cl])([Cl])[Cl]
100 kPa
Conditions | viscosity [mPa·s]
293.15 K | 16.11
303.15 K | 12.41
313.15 K | 9.79
323.15 K | 7.943

CC(=O)[O-].C[NH+]1C=CN=C1
Conditions | viscosity [mPa·s]
298.15 K, 100 kPa | 6.22

COCC(C)OCC(C)O (stereo unspecified)
101.33 kPa
Conditions | viscosity [mPa·s]
298.15 K | 3.691
308.15 K | 2.765
318.15 K | 2.147

CCCC(O)CC (stereo unspecified)
Conditions | viscosity
298.15 K, 101.33 kPa | 4.34 mPa·s and 4.34 mPa·s

NC=O
viscosity
Conditions | 293.15 K | 298.15 K | 303.15 K | 308 K | 308.15 K | 313 K | 313.15 K | 318.15 K | 323.15 K
100 kPa | 3.734 mPa·s | 3.34 mPa·s | 2.964 mPa·s and 2.874 mPa·s | – | 2.612 mPa·s | – | 2.351 mPa·s | – | –
101 kPa | 3.656 mPa·s and 3.792 mPa·s | – | – | 2.648 mPa·s | – | 2.273 mPa·s | – | – | 2.01 mPa·s and 1.905 mPa·s and 1.966 mPa·s
101.3 kPa | – | 3.393 mPa·s | 2.8 mPa·s | – | 2.5 mPa·s | – | 2.2 mPa·s | – | 1.6 mPa·s
101.33 kPa | – | 3.217 mPa·s | 2.802 mPa·s and 2.84 mPa·s | – | 2.498 mPa·s and 2.59 mPa·s | – | 2.243 mPa·s | 2.032 mPa·s | 1.846 mPa·s

N#C[C-](C#N)C#N.OCC[n+]1ccccc1
101 kPa
Conditions | viscosity [mPa·s]
293.15 K | 136.6
298.15 K | 97.48
303.15 K | 71.78
308.15 K | 54.57
313.15 K | 42.31
318.15 K | 33.96
323.15 K | 27.78

CC(C)C#N
101 kPa
Conditions | viscosity
303.15 K | 0.461 mPa·s
308.15 K | 0.434 mPa·s and 0.433 mPa·s

C=CCO
viscosity [mPa·s]
Conditions | 298.15 K | 303.15 K | 313.15 K | 318.15 K | 323.15 K
101 kPa | – | 1.122 | 0.9208 | 0.8419 | 0.7703
101.33 kPa | 1.232 | – | – | – | –

CCCCCCCCCCC
viscosity
Conditions | 293.15 K | 298.15 K | 303.15 K | 308.15 K | 313.15 K | 318.15 K | 323.15 K
100 kPa | 1.187 mPa·s and 1.155 mPa·s | 1.074 mPa·s | 1.009 mPa·s and 0.993 mPa·s and 0.983 mPa·s | 0.935 mPa·s and 0.923 mPa·s and 0.912 mPa·s | 0.869 mPa·s and 0.861 mPa·s and 0.849 mPa·s | 0.812 mPa·s and 0.806 mPa·s and 0.792 mPa·s | 0.761 mPa·s and 0.756 mPa·s and 0.742 mPa·s
101 kPa | – | 1.075 mPa·s | – | 0.9373 mPa·s | – | 0.7937 mPa·s | –
101.33 kPa | – | 1.084 mPa·s and 1.084 mPa·s | – | – | – | – | –

CCOC(=O)CCC(=O)OCC
101.33 kPa
Conditions | viscosity [mPa·s]
298.15 K | 2.466
303.15 K | 2.196
308.15 K | 1.973
313.15 K | 1.779
318.15 K | 1.615

OCCCl
viscosity
Conditions | 293.15 K | 298.15 K | 303.15 K | 308.15 K | 313.15 K
100 kPa | – | – | – | 2.234 mPa·s | 1.882 mPa·s
101.3 kPa | – | 2.973 mPa·s | 2.611 mPa·s | – | –
101.33 kPa | 3.588 mPa·s | 2.81 mPa·s and 2.985 mPa·s | 2.624 mPa·s and 2.448 mPa·s | 2.15 mPa·s | –
